Measured values reported in ChEMBL document CHEMBL1150002, “Synthesis and biological activities of new heterocyclic aromatic retinoids” (Bioorg Med Chem Lett, 1997).
Active and inactive are the calls of the source. The calls are words filed in the database; no cut-off is given here.

What was measured:
F9 [1] = assay: Compound was tested for its ability to induce differentiation of F9 cells as estimated by plasminogen activator secretion (PA); type: functional, cell-based; details: Mus musculus
[2] = target: T1, Retinoic acid receptor gamma (Homo sapiens, UniProt P13631); assay: Binding affinity towards Retinoic acid receptor gamma
T1 sequence (P13631 whole entry): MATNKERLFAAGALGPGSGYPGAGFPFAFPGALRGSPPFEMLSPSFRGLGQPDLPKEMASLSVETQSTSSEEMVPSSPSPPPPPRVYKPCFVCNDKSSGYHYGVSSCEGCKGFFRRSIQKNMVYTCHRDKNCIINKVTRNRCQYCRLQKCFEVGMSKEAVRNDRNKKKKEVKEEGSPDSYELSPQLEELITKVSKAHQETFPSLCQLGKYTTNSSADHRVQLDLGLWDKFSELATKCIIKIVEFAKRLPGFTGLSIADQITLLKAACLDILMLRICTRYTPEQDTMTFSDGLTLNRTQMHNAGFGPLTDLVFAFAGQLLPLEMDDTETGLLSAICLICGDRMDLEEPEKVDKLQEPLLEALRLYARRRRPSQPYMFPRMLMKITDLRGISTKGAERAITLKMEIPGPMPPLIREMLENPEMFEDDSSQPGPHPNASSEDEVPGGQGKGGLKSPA

[3] = target: T2, Retinoic acid receptor beta (Homo sapiens, UniProt P10826); assay: Binding affinity towards Retinoic acid receptor beta
T2 sequence (P10826 whole entry): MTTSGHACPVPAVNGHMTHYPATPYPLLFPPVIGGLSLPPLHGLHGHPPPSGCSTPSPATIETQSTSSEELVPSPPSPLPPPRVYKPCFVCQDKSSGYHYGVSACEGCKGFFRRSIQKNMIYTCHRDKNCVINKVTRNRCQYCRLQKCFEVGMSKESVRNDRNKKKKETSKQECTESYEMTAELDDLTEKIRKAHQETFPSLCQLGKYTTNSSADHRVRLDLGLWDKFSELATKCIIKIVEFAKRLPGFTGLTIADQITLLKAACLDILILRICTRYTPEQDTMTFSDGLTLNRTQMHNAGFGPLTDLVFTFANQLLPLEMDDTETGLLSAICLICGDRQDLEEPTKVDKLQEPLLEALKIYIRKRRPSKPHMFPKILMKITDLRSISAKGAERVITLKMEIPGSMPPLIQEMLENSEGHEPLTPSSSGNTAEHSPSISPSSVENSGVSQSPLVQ

[4] = target: T3, Retinoic acid receptor RXR-alpha (Homo sapiens) (UniProt P19793); assay: Evaluated for RXR-alpha functional transcriptional activation; NA means not active at 1 uM
T3 sequence (whole entry): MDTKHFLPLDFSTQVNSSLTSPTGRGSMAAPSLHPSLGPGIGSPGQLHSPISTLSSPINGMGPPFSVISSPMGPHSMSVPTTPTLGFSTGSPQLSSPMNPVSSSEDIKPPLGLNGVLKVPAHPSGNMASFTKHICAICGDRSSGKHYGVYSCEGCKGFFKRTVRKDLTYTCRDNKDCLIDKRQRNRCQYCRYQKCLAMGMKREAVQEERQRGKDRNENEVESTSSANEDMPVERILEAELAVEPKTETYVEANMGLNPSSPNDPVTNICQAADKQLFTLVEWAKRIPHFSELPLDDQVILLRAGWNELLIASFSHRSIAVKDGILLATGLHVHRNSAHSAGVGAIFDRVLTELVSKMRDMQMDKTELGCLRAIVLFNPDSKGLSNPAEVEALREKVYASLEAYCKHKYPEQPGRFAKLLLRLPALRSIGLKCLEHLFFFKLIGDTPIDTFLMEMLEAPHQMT

[5] = target: T4, Retinoic acid receptor alpha (Homo sapiens, UniProt P10276); assay: Binding affinity towards Retinoic acid receptor alpha
T4 sequence (P10276 whole entry): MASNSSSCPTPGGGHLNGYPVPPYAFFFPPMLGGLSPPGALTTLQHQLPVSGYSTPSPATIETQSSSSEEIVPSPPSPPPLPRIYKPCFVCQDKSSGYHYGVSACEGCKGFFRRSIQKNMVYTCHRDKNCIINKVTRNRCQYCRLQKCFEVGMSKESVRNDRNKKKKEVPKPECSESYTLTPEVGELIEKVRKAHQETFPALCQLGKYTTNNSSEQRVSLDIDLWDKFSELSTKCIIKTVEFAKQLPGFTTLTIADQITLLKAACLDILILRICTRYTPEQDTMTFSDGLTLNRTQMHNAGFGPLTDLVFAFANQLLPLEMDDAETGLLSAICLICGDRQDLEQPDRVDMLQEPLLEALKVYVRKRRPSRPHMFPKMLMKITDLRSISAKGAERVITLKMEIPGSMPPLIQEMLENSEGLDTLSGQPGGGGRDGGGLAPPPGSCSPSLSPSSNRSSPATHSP

F9 [6] = assay: Compound was tested for its ability to induce differentiation of F9 cells as estimated by plasminogen activator secretion (PA); NA = Not active; type: functional, cell-based, Mus musculus

Compound	AC50 (F9 [1]) [nM]	Ki [2] [nM]	Ki [3] [nM]	Activity [4]	Ki [5] [nM]	AC50 (F9 [6])
CC(C)(C)c1cc(C2=Cc3ccc(C(=O)O)cc3OC2)cc(C(C)(C)C)c1O	305	531	> 3000	inactive	–	–
CC1(C)CCC(C)(C)c2cc(C3=Cc4ccc(C(=O)O)cc4OC3)ccc21	58	19	36	inactive	487	–
CC(C)(C)c1cc(-c2ccc3cc(C(=O)O)ccc3c2)ccc1O	–	–	> 3000	inactive	> 3000	Not Active
CC1(C)CCC(C)(C)c2cc(C3COc4cc(C(=O)O)ccc4C3)ccc21 (centres undefined)	300	1040	90	inactive	5790	–
CC1(C)CCC(C)(C)c2cc(-c3ccc4cc(C(=O)O)ccc4c3)ccc21	–	–	–	inactive	–	–
O=C(O)c1ccc2c(c1)OCC(c1ccc(O)c(C34C[C@H]5C[C@@H](C3)C[C@@H](C4)C5)c1)=C2	107	148	> 3000	inactive	821	–
COc1ccc(-c2ccc3cc(C(=O)O)ccc3c2)cc1C12CC3CC(CC(C3)C1)C2	–	–	–	inactive	–	–
CC(C)(C)c1cc(C2=Cc3ccc(C(=O)O)cc3OC2)ccc1O	–	> 3000	> 3000	inactive	> 3000	Not Active
COc1ccc(C2=Cc3ccc(C(=O)O)cc3OC2)cc1C12C[C@H]3C[C@@H](C1)C[C@@H](C2)C3	–	174	71	inactive	764	–
